Source: patent publication US9802962B2, “Tricyclic pyrone compounds reduce amyloid beta aggregates” (priority 2013, dated 2017)

Experiments:
MC65 neuroblastoma cells = test: MC65 protection assay; type: cell-based; conditions: protection of MC65 cells from death caused by intracellular Aβ; for EC50: read-out: effective concentrations for 50% cell survival (EC50)
Procedure: Employing medium-throughput cell-based MC65 protection assay to screen over one hundred TP compounds, seven TP compounds that protect MC65 neuroblastoma cells from death caused by intracellular Aβ have been identified. […] The EC50 values for CP2, TP70, and TP101 are 120, 80, and 70 nM, respectively.

ACAT = ACAT inhibition; type: biochemical; conditions: read-out: half maximal inhibitory concentration (IC50), ACAT
From the text: (§1) It has been reported that an induction of cholesterol efflux resulting in a reduction of Aβ formation/deposition in vitro and in vivo (Kim, et al., J Alzheimers Dis, 2009, 16:121-131). For additional Detail, see the attached manuscript entitled, “Inhibition of Acyl-CoA: Cholesterol Acyltransferase (ACAT), Overexpression of Cholesterol Transporter Gene, and Protection of Amyloid β (Aβ) Oligomers-Induced Neuronal Cell Death by Tricylic Pyrone Molecules” which is incorporated herein.

[1] = tested on: ABCA1 cholesterol transporter gene; test: Increase of ABCA1 cholesterol transporter gene; type: cell-based
From the text: as §1

[2] = log P by octanol/water partition; type: physicochemical
[3] = Plasma and brain concentrations after i.v. administration in mice; type: in vivo
Procedure: FIGS. 3A-3B. FIG. 3A. CP2 and TP70 plasma and brain concentrations following i.v. injection in mice (n=3). FIG. 3B. […] The drug concentration was determined using HPLC and mass spectrometry.
HPLC/mass spectrometry were employed to quantify CP2 and TP70 in the plasma and brain after i.v. administration in mice. The CP2 concentration was 200-300 μM in the mouse brain between 0.5 and 2 h following 25 mg/kg i.v. administration (FIG. 3A). Similarly, TP70 concentration reached 190 μM in plasma at 5 min and 160 μM in brain at 2 h following 25 mg/Kg i.v. administration (FIGS. 3A and 3B).

5×FAD mice [4] = test: In vivo efficacy in 5×FAD mice; conditions: 5×FAD mice
Procedure: FIGS. 6A-6E. 2-month-old 5×FAD mice were treated with TP70 or vehicle for 6 weeks as described in the text. Four cortical sections evenly distributed through the cerebrum were taken from one hemisphere of each mouse (6 mice in each treatment group) and fluorescently stained with the amyloid dye FSB (blue) and the nuclear dye propidium iodide (PI, red). A: Representative sections that show the PI stain. B: Representative sections that only show the FSB stain. C: Fluorescent staining was objectively quantified by LSC. […] E: A representative Western blot containing the soluble fractions of three mice of each group was analyzed for soluble Aβ dimer (see ref 59 for the method).
Although the mechanism of neuron loss in Alzheimer's disease (AD) remains elusive, it is associated with cerebral accumulation of Aβ42. The 5×FAD mouse model of amyloid deposition expresses five familial AD (FAD) mutations that are additive in driving Aβ42 overproduction.

5×FAD mice [5] = conditions: reported in Hong, et al., J Neurochem, 2009; cited from earlier work

CC(=O)OCCc1cc2c(c(=O)o1)C=C1CC[C@H](C(C)Cn3cnc(N)c4ncnc3-4)C[C@@H]1O2 (some centres unmarked) [TP4]
EC50 values (in words) (MC65 neuroblastoma cells): nanomolar range

Cc1cc2c(c(=O)o1)C=C1CCC(C(C)CNCc3ccc(O)c(F)c3)CC1O2 (centres unmarked) [TP101]
EC50 values (in words) (MC65 neuroblastoma cells): nanomolar range
EC50 (MC65 neuroblastoma cells): 70 nM

Cc1cc2c(c(=O)o1)C=C1CC[C@H](C(C)Cn3cnc(N)c4ncnc3-4)C[C@@H]1O2 (some centres unmarked) [CP2]
EC50 (MC65 neuroblastoma cells): 120 nM
IC50 (ACAT): 1200 nM
EC50 [1]: 900 nM
log P [2]: 2.20
CNS penetration ([3]; i.v., mice): good CNS penetration
brain concentration ([3]; mouse brain, between 0.5 and 2 h, 25 mg/kg i.v.): 200 to 300 µM
cerebral amyloid load (5×FAD mice [4]): substantially reduce
drug toxicity during the course of treatment (5×FAD mice [4]): no apparent drug toxicity
histopathology, hematological counts, and blood chemistry at necropsy (5×FAD mice [4]): No abnormalities
levels of toxic Aβ dimers (5×FAD mice [4]): substantially reduce
soluble and insoluble Aβ aggregates in vivo (5×FAD mice [5]): reduce soluble and insoluble Aβ aggregates in vivo

Cc1cc2c(c(=O)o1)C=C1CCC(C(C)CNCc3ccc(CO)cc3)CC1O2 (centres unmarked) [TP82]
EC50 values (in words) (MC65 neuroblastoma cells): nanomolar range

Cc1cc2c(c(=O)o1)C=C1CCC(C(C)CNCc3c[nH]cn3)CC1O2 (centres unmarked) [TP36]
EC50 values (in words) (MC65 neuroblastoma cells): nanomolar range

Cc1cc2c(c(=O)o1)C=C1CCC(C(C)CNCc3ccc(O)c4ccccc34)CC1O2 (centres unmarked) [TP54]
EC50 values (in words) (MC65 neuroblastoma cells): nanomolar range
